From patent publication US6271238A, “Acetamide derivatives and protease inhibitors” (Nippon Kayaku Kabushiki Kaisha, priority 1996, dated 2001) come the findings set out here.

What all share (type): biochemical
Assay [1] concerns the target T1, dog chymase (Canis lupus familiaris, UniProt P21842).
T1 construct: 60 g dog heart was finely divided by scissors and a scalpel; from tissue; host or cells: dog heart
T1 sequence (P21842 22-249): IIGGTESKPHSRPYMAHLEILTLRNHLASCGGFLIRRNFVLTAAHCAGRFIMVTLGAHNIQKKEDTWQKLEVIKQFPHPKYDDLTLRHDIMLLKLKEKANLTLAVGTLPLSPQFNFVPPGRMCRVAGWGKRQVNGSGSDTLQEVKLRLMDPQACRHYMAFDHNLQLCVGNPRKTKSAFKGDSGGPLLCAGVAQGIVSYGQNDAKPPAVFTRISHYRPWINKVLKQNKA
The experiment in a line: Inhibitory activity on dog chymase (angiotensin I as substrate). The note with it: pH 8.0, 37° C., 60 min, read-out: Dog Chymase (IC50: nM), 50% inhibitory concentration. From the text: It is known that chymase is present in tissues of various animals, and its isolation and purification methods are described in Anal. Biochem., 137, 449 (1984) and FEBS Letters, 323, 119 (1993). In the present invention, chymase was purified by the methods described in these literatures, and the present compounds were examined for inhibitory activity on chymase, inhibitory action on activation of mast cells and eosinophils, and pharmacological action in animals. Hereinafter, specific methods are described. (c) Preparation of dog chymase 60 g dog heart was finely divided by scissors and a scalpel, suspended in 0.1 M phosphate buffer (pH 8.0), and disrupted by a Polytron homogenizer for 5 minutes to prepare a crude chymase enzyme solution. It was centrifuged at 22000×g for 15 minutes, and the precipitates were used as a chymase enzyme fraction. […] An active fraction decomposing the synthetic chymase substrate was recovered and concentrated and this product was used as a purified dog chymase in the following activity measurement. (D) Measurement of inhibitory activity on chymase (b) Measurement using angiotensin I as substrate The inhibitory activity on the human chymase and dog chymase was measured using angiotensin I (Peptide Kenkyusho) as substrate besides the above synthetic substrate. […] After the end of the reaction, produced angiotensin II was immediately measured by high performance liquid chromatography to determine the activity of the chymase to calculate 50% inhibitory concentration (IC50: nM). The test was conducted several times. Chymase was prepared for each test in the manner described above. The compounds examined were compounds prepared in the above-described examples. […] 50% Inhibitory concentration (IC50: nM) of each compound toward rat chymase, dog […] human […] Substrate: Succinyl leucyl leucyl valyl tyrosyl methylcoumarylamide (for rat […] angiotensin I (for human and dog chymase)

For assay [2], the target named is T2, rat chymase (Rattus norvegicus, UniProt P09650).
T2 construct: 50 g rat tongue was finely divided by scissors and a scalpel; from tissue; host or cells: rat tongue
T2 sequence (P09650 21-260): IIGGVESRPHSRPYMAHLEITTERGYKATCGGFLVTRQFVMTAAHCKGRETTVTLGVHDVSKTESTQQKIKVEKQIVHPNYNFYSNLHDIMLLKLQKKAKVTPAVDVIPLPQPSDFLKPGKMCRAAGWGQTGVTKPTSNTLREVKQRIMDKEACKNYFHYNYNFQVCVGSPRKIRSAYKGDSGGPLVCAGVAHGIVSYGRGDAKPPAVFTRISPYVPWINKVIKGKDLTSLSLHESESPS
In words: Inhibitory activity on rat chymase (synthetic substrate). Particulars: substrate succinyl leucyl leucyl valyl tyrosyl methylcoumarylamide; pH 8.0, 37° C., 15 min; read-out: Rat Chymase (IC50: nM), 50% inhibitory concentration. The method, then: In the present invention, chymase was purified by the methods described in these literatures, and the present compounds were examined for inhibitory activity on chymase, inhibitory action on activation of mast cells and eosinophils, and pharmacological action in animals. Hereinafter, specific methods are described. […] 50 g rat tongue was finely divided by scissors and a scalpel, suspended in 0.1 M phosphate buffer (pH 8.0), and disrupted by a Polytron homogenizer for 5 minutes to prepare a crude chymase enzyme solution. […] The supernatant was applied to an octyl Sepharose 4B column (40×100 mm) previously equilibrated with 0.1 M phosphate buffer (pH 8.0) containing 2 M sodium chloride and 5% ammonium sulfate, and the protein was eluted with a linear concentration gradient of from 2 M to 0 M sodium chloride. […] (D) Measurement of inhibitory activity on chymase (a) Measurement using the synthetic substrate The synthetic chymase substrate was used for measurement of the inhibitory activity on the rat chymase as a subtrate, and the fluorescence of formed aminomethylcoumarin after reaction was measured by a spectrophotometer. […] The test was conducted several times. Chymase was prepared for each test in the manner described above. The compounds examined were compounds prepared in the above-described examples. […] Succinyl leucyl leucyl valyl tyrosyl methylcoumarylamide (for rat […] angiotensin I (for human and dog chymase)

In assay [3] the target is T3, human chymase (Homo sapiens, UniProt P23946).
T3 construct: 60 g human tonsils were finely divided by scissors and a scalpel; from tissue; host or cells: human tonsils
T3 sequence (P23946 22-247): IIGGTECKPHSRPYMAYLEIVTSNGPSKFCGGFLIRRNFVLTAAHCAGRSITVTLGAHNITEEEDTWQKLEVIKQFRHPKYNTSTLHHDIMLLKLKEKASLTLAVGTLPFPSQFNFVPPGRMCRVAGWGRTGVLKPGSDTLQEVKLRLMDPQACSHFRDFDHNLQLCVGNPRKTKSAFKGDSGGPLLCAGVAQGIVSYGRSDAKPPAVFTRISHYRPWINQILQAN
The experiment in a line: Inhibitory activity on human chymase (angiotensin I as substrate). The note with it: for IC50: substrate angiotensin I, pH 8.0, 37° C., 60 min, read-out: Human Chymase (IC50: nM), 50% inhibitory concentration. The text has this:
It is known that chymase is present in tissues of various animals, and its isolation and purification methods are described in Anal. Biochem., 137, 449 (1984) and FEBS Letters, 323, 119 (1993). In the present invention, chymase was purified by the methods described in these literatures, and the present compounds were examined for inhibitory activity on chymase, inhibitory action on activation of mast cells and eosinophils, and pharmacological action in animals. Hereinafter, specific methods are described. 50 g rat tongue was finely divided by scissors and a scalpel, suspended in 0.1 M phosphate buffer (pH 8.0), and disrupted by a Polytron homogenizer for 5 minutes to prepare a crude chymase enzyme solution. […] The supernatant was applied to an octyl Sepharose 4B column (40×100 mm) previously equilibrated with 0.1 M phosphate buffer (pH 8.0) containing 2 M sodium chloride and 5% ammonium sulfate, and the protein was eluted with a linear concentration gradient of from 2 M to 0 M sodium chloride. An active fraction decomposing succinyl leucyl leucyl valyl tyrosyl methylcumarylamide (hereinafter referred to as the synthetic chymase substrate, a product of Peptide Kenkyusho) was recovered and concentrated and this product was used as a purified rat chymase in the following activity measurement. (B) Preparation of human chymase 60 g human tonsils were finely divided by scissors and a scalpel, suspended in 0.1 M phosphate buffer (pH 8.0), and A-disrupted by a Polytron homogenizer for 5 minutes to prepare a crude chymase enzyme solution. It was centrifuged at 22000×g for 30 minutes, and the precipitates were used as a chymase enzyme fraction. […] The supernatant was concentrated by an ultrafiltration membrane, then applied to […] column (6.0×300 mm), and eluted with 0.1 M phosphate buffer (pH 8.0). An active fraction decomposing the synthetic chymase substrate was recovered and concentrated and this product was used as a purified human chymase in the following activity measurement. (D) Measurement of inhibitory activity on chymase (b) Measurement using angiotensin I as substrate The inhibitory activity on the human chymase and dog chymase was measured using angiotensin I (Peptide Kenkyusho) as substrate besides the above synthetic substrate. […] After the end of the reaction, produced angiotensin II was immediately measured by high performance liquid chromatography to determine the activity of the chymase to calculate 50% inhibitory concentration (IC50: nM). The test was conducted several times. Chymase was prepared for each test in the manner described above. The compounds examined were compounds prepared in the above-described examples. […] 50% Inhibitory concentration (IC50: nM) of each compound toward rat chymase, dog […] human […] Substrate: Succinyl leucyl leucyl valyl tyrosyl methylcoumarylamide (for rat […] angiotensin I (for human and dog chymase)

In assay [4] the test system is other human proteases. In words: Inhibitory activity on other human proteases (summary). The procedure:
(E) Measurement of inhibitory activity on proteases other than chymase
The inhibitory activity of the present compounds on human elastase, human cathepsin G, human urokinase, human thrombin, human plasmin, and human factor Xa was determined using their corresponding synthetic substrates in the same manner as for chymase. All the above proteases were those commercially available from Boehringer Mannheim or purified by a combination of known methods. The synthetic substrates were those produced by Peptide Renkyusho. The synthetic substrates for the respective proteases are as follows.
The test was conducted several times. Chymase was prepared for each test in the manner described above. The compounds examined were compounds prepared in the above-described examples.

With `CC(=O)C(=O)C(Cc1ccc(F)cc1)NC(=O)Cn1c(-c2ccccc2)ncc(NC(=O)OC(C)(C)C)c1=O` (stereo not drawn) [Compound 55], the IC50 in assay [1] was 98 nM; in assay [2], 920 nM; in assay [3], over 10000 nM.
Consider `CC(C)(C)OC(=O)Nc1cnc(-c2ccccc2)n(CC(=O)NC(Cc2ccccc2)C(=O)C(=O)CCc2ccccc2)c1=O` (stereo not drawn) [Compound 41], for which the IC50 in assay [1] turned out to be 13 nM; in assay [2], 740 nM; in assay [3], 148 nM.
For the compound `CC(=O)Nc1cnc(-c2ccccc2)n(CC(=O)NC(Cc2ccccc2)C(=O)C(=O)CCCn2ccccc2=O)c1=O` (stereo not drawn) [Compound 76], the IC50 in assay [1] was determined as 0.19 nM; in assay [2], 190 nM; in assay [3] it was 122 nM.
The like results for `O=C(Cn1c(-c2ccccc2)ncc(NC(=O)C2CCOC2)c1=O)NC(Cc1ccccc1)C(=O)C(=O)CCCc1ccccc1` (stereo not drawn) [Compound 81] were, in that order, 0.29 nM, 150 nM and 114 nM.
`Nc1cnc(-c2ccccc2)n(CC(=O)NC(Cc2ccccc2)C(=O)C(=O)CCCOc2ccccn2)c1=O` (stereo not drawn) [Compound 75]: the “inhibitory activity on other human proteases, in words” value in assay [4] was “no inhibitory activity on other human proteases”. In addition, the figures for the IC50 in assay [1], in assay [2] and in assay [3] were 1 nM, 220 nM and 2.6 nM, respectively. The “inhibitory activity on human chymase, in words” value in assay [3] is “strong inhibitory activity on human chymase”.
Consider `CC(=O)C(=O)C(Cc1cccc(C)c1)NC(=O)Cn1c(-c2ccccc2)ncc(N)c1=O` (stereo not drawn) [Compound 60], for which the results for the IC50 in assay [1], in assay [2] and in assay [3] were 9.1 nM, 450 nM and 101 nM, respectively.
The corresponding values for `CC(=O)C(=O)C(Cc1cccc(Cl)c1)NC(=O)Cn1c(-c2ccccc2)ncc(N)c1=O` (stereo not drawn) [Compound 62] are 5 nM, 200 nM and 131 nM.
The like results for `Nc1cnc(-c2ccccc2)n(CC(=O)NC(Cc2ccccc2)C(=O)C(=O)c2ccccc2)c1=O` (stereo not drawn) [Compound 46] were, in that order, 494 nM, 2800 nM and 1590 nM.
Regarding `O=C(Cn1c(-c2ccccc2)ncc(NC(=O)OCc2ccncc2)c1=O)NC(Cc1ccccc1)C(=O)C(=O)CCCOc1ccccn1` (stereo not drawn) [Compound 78, 2-{6-oxo-2-phenyl-5-(4-pyridylmethyloxycarbonylamino)-1,6-dihydropyrimidine-1-yl}-N-{2,3-dioxo-1-phenylmethyl-6-(2-pyridyloxy)}hexylacetamide], in assay [4], the “inhibitory activity on other human proteases, in words” value was “no inhibitory activity on other human proteases”. Further, the IC50 was 0.32 nM in assay [1], 42 nM in assay [2] and 1.6 nM in assay [3]. Also, the “inhibitory activity on human chymase, in words” value in assay [3] is reported as “strong inhibitory activity on human chymase”.
Turning to `Nc1cnc(-c2ccccc2)n(CC(=O)NC(Cc2ccccc2)C(=O)C(=O)CCCC(=O)O)c1=O` (stereo not drawn) [Compound 48], the IC50 in assay [1] is 33 nM; in assay [2], over 10000 nM; in assay [3], 314 nM.
The like results for `CC(=O)C(=O)C(Cc1ccccc1)NC(=O)Cn1c(-c2ccccc2)ncc(NC(=O)OC(C)(C)C)c1=O` (stereo not drawn) [Compound 37, 2-(5-t-Butyloxycarbonylamino-6-oxo-1,6-dihydro-2-phenyl-1-pyrimidinyl)-N-(2,3-dioxo-1-phenylmethyl) butylacetamide] were, in that order, 22 nM, 2900 nM and 673 nM.
The corresponding values for `CC(=O)C(=O)C(Cc1ccc(Cl)cc1)NC(=O)Cn1c(-c2ccccc2)ncc(N)c1=O` (stereo not drawn) [Compound 58] are 71 nM, 340 nM and 2850 nM.
As to `CC(=O)C(=O)C(Cc1ccc(O)c(F)c1)NC(=O)Cn1c(-c2ccccc2)ncc(N)c1=O` (stereo not drawn) [Compound 50], the “inhibitory activity on other human proteases, in words” value in assay [4] is “no inhibitory activity on other human proteases”. In addition, the IC50 in assay [1] was 19 nM; in assay [2], 690 nM; in assay [3], 73 nM. Besides, the “inhibitory activity on human chymase, in words” value in assay [3] is reported as “strong inhibitory activity on human chymase”.
